Among the data in patent US5843937A (priority 1996, dated 1998) are delayed death and IC50 values, retold here.

Tested on in one data set: not given
Assay: not given
The settings on record: prior compounds; experimental animals (CC-1065); cited from earlier work.
With `COC(=O)c1c(C)[nH]c2c(OC(=O)N3CCN(C)CC3)cc3c(c12)[C@H](CBr)CN3C(=O)c1cc2cc(OC)c(OC)c(OC)c2[nH]1` [KW 2189], the delayed death entry is reported as “do not cause delayed death”.
Regarding `Cc1c[nH]c2c1[C@@]13C[C@@H]1CN(C(=O)c1cc4cc(NC(=O)c5cc6ccccc6o5)ccc4[nH]1)C3=CC2=O` [U-73975], the delayed death entry is listed as “do not cause delayed death”.
Turning to `Cc1c[nH]c2c(O)cc3c(c12)[C@H](CCl)CN3C(=O)c1cc2cc(NC(=O)Nc3ccc4[nH]c(C(=O)N5C[C@@H](CCl)c6c5cc(O)c5[nH]cc(C)c65)cc4c3)ccc2[nH]1` [U-77779], the delayed death result is on record as “do not cause delayed death”.
On to `CCN(CC)c1ccc2cc(C(=O)Nc3ccc4[nH]c(C(=O)N5C[C@@H](CCl)c6c5cc(OC(=O)Nc5ccccc5)c5[nH]cc(C)c65)cc4c3)oc2c1` [U-80244], for which the delayed death result is reported as “do not cause delayed death”.

A further data set concerns B16 Melanoma. The data set is described as follows: Cytotoxicity of Invented Compounds Against B16 Melanoma. The data set is classed as cell-based. The settings on record: Mus musculus.
By IC50 is commonly meant the concentration that inhibits the measured activity by half. The low end stands for greater potency in that assay, the high end for weaker potency in that assay. In the case of `CC(=O)Nc1ccc2[nH]c(C(=O)Nc3ccc4[nH]c(C(=O)N5CC(CCl)c6c5cc(O)c5ccccc65)cc4c3)cc2c1` (stereo not shown) [YW-200, 3-[[5-[[5-(Acetamino)-1H-indol-2-ylcarbonyl]amino]-1H-indol-2-yl]carbonyl]-1-(chloromethyl)-5-hydroxy-1,2-dihydro-3H-benz[e]indole], the IC50 amounted to 7.2 nM.
The same measure, in the same setting: the same measure for `O=C(CCCO)Nc1ccc2[nH]c(C(=O)N3CC(CCl)c4c3cc(O)c3ccccc43)cc2c1` (stereo not shown) [YW-231, 3-[[5-[(4-Hydroxy)butyramino]-1H-indol-2'-yl]carbonyl]-1-(chloromethyl)-5-hydroxy-1,2-dihydro-3H-benz[e]indole]: 4 nM.

The next data set has as its system U937 Cells. Briefly: Cytotoxicity of Invented Compounds Against U937 Cells. The data set is classed as cell-based. Particulars: 48 h incubation, 3H-thymidine last 24 h. On the procedure:
Some of the new compounds were tested for their cytotoxicity against cancer cells. U937 cells were used to determine the IC50 values. The assay was set up in triplicate in 96 well flat bottom microtiter plates. All cells are seeded at 5×10^3 cells/well in RPMI-1640 plus 10% FCS. Drugs were added and the total volume was adjusted to 0.2 mL/well. Total incubation time was 48 h with the addition of ^3 H-thymidine for the last 24 h of incubation. The assay was harvested and counted with the packard Matrix 96 beta counter. The results were expressed as the percent growth inhibition calculated from the percent decrease in cpm of treated cells relative to the untreated controls.
Compound `CC(=O)Nc1cc(C(=O)N2CC(CCl)c3c2cc(O)c2ccccc32)n(C)c1` (stereo not shown) [YW-161, 3-[(4-Acetamino-1-methylpyrrole-2-yl)carbony:L]-1-(chloromethyl)-5-hydroxy-1,2-dihydro-3H-benz[e]indole] came in with an IC50 of 5 nM.
The same measure, in the same setting: the figure for `O=C(C=Cc1cc2ccccc2o1)Nc1ccc2[nH]c(C(=O)N3CC(CCl)c4c3cc(O)c3ccccc43)cc2c1` (stereo not shown) [YW-215, 3-[[5-[(1H-Benzofuran-2-ylacrylyl)amino]-1H-indol-2-yl]carbony 1]-1-(chloromethyl)-5-hydroxy-1,2-dihydro-3H-benz[e]indole] is 0.09 nM.

Still in this data set, the particulars now being: Homo sapiens, U-937, 48 h incubation, 3H-thymidine last 24 h.
As to `CC(=O)Nc1ccc2[nH]c(C(=O)N3CC(CCl)c4c3cc(O)c3ccccc43)cc2c1` (stereo not shown) [YW-198, 3-[[5-(acetamino)-1H-indol-2'-yl]carbonyl]-1-(chloromethyl)-5-hydroxy-1,2-dihydro-3H-benz[e]indole], it took 0.2 nM to reach half-maximal inhibition (IC50).
Same read-out and setting: the same measure for `CC(=O)Nc1ccc2oc(C(=O)Nc3ccc4[nH]c(C(=O)N5CC(CCl)c6c5cc(O)c5ccccc65)cc4c3)cc2c1` (stereo not shown) [YW-201, 3-[[5-[[5-(Acetamino)-1H-benzofuran-2-ylcarbonyl]amino]-1H-indol-2-yl]carbonyl]-1-(chloromethyl)-5-hydroxy-1,2-dihydro-3H-benz[e]indole]: 0.07 nM; for `CC(=O)Nc1ccc2[nH]c(C=CC(=O)N3CC(CCl)c4c3cc(O)c3ccccc43)cc2c1` (stereo not shown) [YW-202, 3-[[5-(acetamino)-1H-indol-2-yl]acrylyl]-1-(chloromethyl)-5-hydroxy-1,2-dihydro-3H-benz[e]indole]: 0.2 nM.
Same read-out and setting: the same measure for `CC(=O)Nc1ccc2oc(C(=O)Nc3ccc4[nH]c(C(=O)N5CC6CC67C5=CC(=O)c5ccccc57)cc4c3)cc2c1` (stereo not shown) [YW-213, N^2-[[5-[[[5-(Acetamino)-1H-benzofuran-2-yl]carbonyl]amino]-1H-indol-2-yl]carbonyl]1,2,9,9a-tetrahydrocyclopropa[c]-benz[e]indol-4-one]: 0.2 nM; for `CCCC(=O)Nc1cc(C=CC(=O)N2CC(CCl)c3c2cc(O)c2ccccc32)n(C)c1` (stereo not shown) [YW-222, 3-(4-Butyramido-1-methyl-2-pyrroleacryloylcarbonyl)-1-(chloromethyl)-5-hydroxy-1,2-dihydro-3H-benz[e]indole]: 0.5 nM; for `O=C(CCCO)Nc1ccc2[nH]c(C(=O)N3CC(CCl)c4c3cc(O)c3ccccc43)cc2c1` (stereo not shown) [YW-231, 3-[[5-[(4-Hydroxy)butyramino]-1H-indol-2'-yl]carbonyl]-1-(chloromethyl)-5-hydroxy-1,2-dihydro-3H-benz[e]indole]: 0.6 nM.
On to `O=C(CCCC[C@@H]1SC[C@@H]2NC(=O)N[C@@H]21)Nc1ccc2[nH]c(C(=O)N3CC(CCl)c4c3cc(O)c3ccccc43)cc2c1` (stereo partly shown) [YW-235, 3-[[5-(Biotin-amino)-1H-indol-2'-yl]carbonyl]-1-(chloromethyl)-5-hydroxy-1,2-dihydro-3H-benz[e]indole], for which the IC50 stood at 0.7 nM.
For the compound `COC(=O)[C@H]1O[C@@H](OCCCC(=O)Nc2ccc3[nH]c(C(=O)N4CC(CCl)c5c4cc(O)c4ccccc54)cc3c2)[C@H](OC(C)=O)[C@@H](OC(C)=O)[C@@H]1OC(C)=O` (stereo partly drawn) [YW-247, 3-[[5-[4-(Methyl 2,3,4-tri-O-acetyl-1-deoxy-b-D-glucuronate)butyramino]-1H-indol-2'-yl]carbonyl]-1-(chloromethyl)-5-hydroxy-1,2-dihydro-3H-benz[e]indole], it took 1.4 nM to reach half-maximal inhibition (IC50).
As to `COC(=O)[C@H]1O[C@@H](OCCCC(=O)Nc2ccc3[nH]c(C(=O)Nc4ccc5[nH]c(C(=O)N6CC(CCl)c7c6cc(O)c6ccccc76)cc5c4)cc3c2)[C@H](OC(C)=O)[C@@H](OC(C)=O)[C@@H]1OC(C)=O` (stereo partly drawn) [YW-249, 3-[[5-[[5-[4-(Methyl 2,3,4-tri-O-acetyl-1-deoxy-b-D-glucuronate)butyramino]-1H-indol-2-ylcarbonyl]amino]-1H-indol-2-yl]carbony 1]-1-(chloromethyl)-5-hydroxy-1,2-dihydro-3H-benz[e]indole], the IC50 was 0.55 nM.
Still for that read-out and setting: the figure for `O=C(CCCO)Nc1ccc2[nH]c(C(=O)Nc3ccc4[nH]c(C(=O)N5CC(CCl)c6c5cc(O)c5ccccc65)cc4c3)cc2c1` (stereo not shown) [YW-254, 3-[[5-[[5-[4-(Hydroxy)butyramino]-1H-indol-2-ylcarbonyl]amino]-1H-indol-2-yl]carbonyl]-1-(chloromethyl)-5-hydroxy-1,2-dihydro-3H-benz[e]indole] is 0.1 nM; for `COC(=O)[C@H]1O[C@@H](OCCCC(=O)Nc2ccc3[nH]c(C(=O)Nc4ccc5[nH]c(C(=O)Nc6ccc7[nH]c(C(=O)N8CC(CCl)c9c8cc(O)c8ccccc98)cc7c6)cc5c4)cc3c2)[C@H](OC(C)=O)[C@@H](OC(C)=O)[C@@H]1OC(C)=O` (stereo partly drawn) [YW-258, 3-[[5-[[5-[[5-[4-(Methyl 2,3,4-tri-O-acetyl-1-deoxy-b-D-glucuronate)butyramino]-1H-indo 1-2-ylcarbonyl]amino]-1H-indol-2-ylcarbonyl]amino]-1H-indol-2-yl]carbonyl]-1-(chloromethyl)-5-hydroxy-1,2-dihydro-3H-benz[e] indole] it is 0.08 nM.
In the case of `O=C(CCCO)Nc1ccc2[nH]c(C(=O)Nc3ccc4[nH]c(C(=O)Nc5ccc6[nH]c(C(=O)N7CC(CCl)c8c7cc(O)c7ccccc87)cc6c5)cc4c3)cc2c1` (stereo not shown) [YW-259], half-maximal inhibition (IC50) was put at 0.09 nM.
Same read-out and setting: the same measure for `Cn1cc(N)cc1C(=O)N1CC(CCl)c2c1cc(O)c1ccccc21` (stereo not shown) [YW-284, 3-[(4-Amino-1-methylpyrrole-2-yl)carbonyl]-1-(chloromethyl)-5-hydroxy-1,2-dihydro-3H-benz[e]indole]: 9 nM; for `O=C(Cc1cccs1)N[C@@H]1C(=O)N2C(C(=O)O)=C(COC(=O)Nc3ccc4[nH]c(C(=O)N5CC(CCl)c6c5cc(O)c5ccccc65)cc4c3)C[S+]([O-])[C@H]12` (stereo partly shown) [YW-285]: 0.9 nM.
